The source of these data is patent US20170290878A1, “METHODS OF TREATING CANCER WITH TUBULYSIN CONJUGATES” (Endocyte, Inc., priority 2014, published 2017).

Counter-ions that a name gives are not always drawn.

Data set [1] relates to LU1147 tumors. In words: Antitumor activity in Huprime NSCLC PDX tumor model LU1147. The format is in vivo, mice. The protocol: (§1) These studies were performed at Crown Bioscience (Beijing) Inc., Ground Floor, Light Muller Building, Changping Sector of Zhongguancun Scientific Park, No. 21 Huoju Road, Changping District, Beijing, P.R. China.
For data set [2], the system named is LU2505 tumors. In words: Antitumor activity in Huprime NSCLC PDX tumor model LU2505. The format is in vivo, mice. The protocol: as §1
Data set [3] deals with KB-PR10 tumors. In words: Antitumor activity on paclitaxel resistant KB-PR10 tumors in nu/nu mice. The format is in vivo. Conditions: three times a week for two weeks. The protocol:
Four to six week-old female nu/nu mice (Harlan Sprague Dawley, Inc., Indianapolis, Ind.) were maintained on a standard 12 h light-dark cycle and fed ad libitum with folate-deficient chow (Harlan diet #TD00434, Harlan Teklad, Madison, Wis.) for the duration of the experiment. FR-positive paclitaxel resistant KB-PR10 cells were grown continuously as a monolayer, using folate-free RPMI medium (FFRPMI) containing 5% heat-inactivated fetal calf serum (HIFCS) at 37° C. in a 5% CO2/95% air-humidified atmosphere with no antibiotics. KB-PR10 cells (1×10^6 per nu/nu mouse) in 100 μL were injected in the subcutis of the dorsal medial area. […] Mice were treated with 20 mg/kg Paclitaxel, 2 μmol/kg EC145 (See WO2004/069159 for a description of EC145) or 1 μmol/kg Compound I on a three times a week for 2 weeks schedule when the tumors were approximately 100-145 mm^3, 101-129 mm^3 and 100-140 mm^3 in volume, respectively. The mice in the control groups received no treatment. […] All in vivo studies were performed in accordance with the American Accreditation Association of Laboratory Animal Care guidelines.

Data set [4] has as its system ST502 TNBC tumors. In words: Antitumor activity in Triple Negative Breast Cancer (TNBC) ST502 model. Format: in vivo, mice. The protocol:
(§2) These materials were obtained from and studies were performed at South Texas Accelerated Research Therapeutics, 4383 Medical Drive, San Antonio, Tex. 78229

The subject of data set [5] is large KB tumors. In words: Antitumor activity in large KB tumor model. The format is in vivo, mice. Conditions: EC1456 2 μmol/kg, three times a week for two weeks.
Protocol: Female Balb/c nu/nu mice were fed ad libitum with folate-deficient chow (Harlan diet #TD01013) for the duration of the experiment. KB tumor cells were inoculated subcutaneously at the right flank of each mouse.
Growth of each s.c. tumor was followed by measuring the tumor two times per week. Tumors were measured in two perpendicular directions using Vernier calipers, and their volumes were calculated as 0.5×L×W^2, where L=measurement of longest axis in mm and W=measurement of axis perpendicular to L in mm.
Data set [6] deals with ST040 Endometrial tumors. In words: Antitumor activity in Endometrial ST040 model. The format is in vivo, mice. The protocol: as §2
The subject of data set [7] is ST024 Ovarian tumors. In words: Antitumor activity in Ovarian ST024 model. Format: in vivo, mice. The protocol: as §2
The subject of data set [8] is ST738 TNBC tumors. In words: Antitumor activity in Triple Negative Breast Cancer (TNBC) ST738 model. The format is in vivo, mice. The protocol: as §2
Data set [9] can be described thus: Phase 1 dose-escalation study: safety, DLT. Format: in vivo, human. The protocol:
Compound I was administered via IV bolus injection.

The mark [10] stands for this setting: EC1456 2 μmol/kg, two times a week for two weeks.
[11] abbreviates: EC1456 4 μmol/kg, once a week for two weeks.
Setting [12] is: EC1456 2 μmol/kg, two times a week for two weeks (BIW×2).
[13] abbreviates: EC1456 4 μmol/kg, once a week for two weeks (SIW×2).
Where [14] appears, read: EC1456 1.5 μmol/kg, two times a week for two weeks (BIW×2).
The mark [15] stands for this setting: EC1456 3 μmol/kg, once a week for two weeks (SIW×2).
[16] abbreviates: DL1 and DL2 (0.5 and 1.0 mg/m^2, BIW), 6 patients.
The mark [17] stands for this setting: Eribulin mesylate 1 mg/kg, once a week for two weeks (SIW×2).
Where [18] appears, read: Paclitaxel 15 mg/kg, once a week for two weeks (SIW×2).

Consider `CC(=O)O[C@@]12CO[C@@H]1C[C@H](O)[C@@]1(C)C(=O)[C@H](O)C3=C(C)[C@@H](OC(=O)[C@H](O)[C@@H](NC(=O)OC(C)(C)C)c4ccccc4)C[C@@](O)([C@@H](OC(=O)c4ccccc4)[C@H]21)C3(C)C` [Docetaxel], for which, in data set [1] (Docetaxel 15 mg/kg, one dose), the “animals exhibiting stable disease” value amounted to 2 animals and the anti-tumor activity entry was “minimal anti-tumor activity”. In [2] (Docetaxel 15 mg/kg, one dose), the “CR's” value came out at 2, the “PR's” value is 2, the anti-tumor activity result is given as “some anti-tumor activity” and the cures was 2.

As for `CCCC(=O)OCN(C(=O)[C@@H](NC(=O)[C@H]1CCCCN1C)C(C)CC)[C@H](C[C@@H](OC(C)=O)c1nc(C(=O)N[C@@H](Cc2ccc(O)cc2)C[C@H](C)C(=O)NNC(=O)OCCSSC[C@@H](NC(=O)[C@H](CCC(=O)NC[C@H](O)[C@@H](O)[C@H](O)[C@H](O)CO)NC(=O)[C@@H](CCC(=O)O)NC(=O)[C@H](CCC(=O)NC[C@H](O)[C@@H](O)[C@H](O)[C@H](O)CO)NC(=O)[C@@H](CCC(=O)O)NC(=O)[C@H](CCC(=O)NC[C@H](O)[C@@H](O)[C@H](O)[C@H](O)CO)NC(=O)CC[C@@H](NC(=O)c2ccc(NCc3cnc4nc(N)[nH]c(=O)c4n3)cc2)C(=O)O)C(=O)O)cs1)C(C)C` (some centres unmarked) [EC1456], the anti-tumor activity result in [3] (2 μmol/kg) was “no-anti-tumor activity”; in [4] (setting [12]), “no anti-tumor activity”; in data set [4] (setting [13]), “no anti-tumor activity”; in data set [5], “excellent anti-tumor activity”; in data set [6] (setting [14]), “slightly better anti-tumor activity”; in [6] (setting [15]) it was “slightly better anti-tumor activity”. The anti-tumor activity result in data set [7] (setting [12]) is on record as “curative”; in data set [7] (setting [13]) it was “curative”; in data set [8] (setting [12]), “some anti-tumor activity”; in [8] (setting [13]), “some anti-tumor activity”. The compound also yielded a PRs in data set [3] (EC1456 1 μmol/kg) of 60%. For the same compound, in [3] (EC1456 1 μmol/kg), the antitumor activity result is reported as “good antitumor activity”. In addition, the cures is given as 40% in data set [3] (EC1456 1 μmol/kg); 7 of 7 in data set [2] (setting [10]); 7 of 7 in [2] (setting [11]); 100% in data set [5] (1000 mm^3 tumor group); 100% in [5] (1400 mm^3 tumor group). Besides, the results for the “animals exhibiting stable disease” value in [1] (setting [10]) and in [1] (setting [11]) were 5 animals and 6 animals, respectively. Further, the “animal exhibiting PR” value in data set [6] (setting [14]) was found to be 1 animal. Moreover, the “partial response (PR)” value amounted to 1 in data set [6] (setting [15]) and 2 in data set [7] (setting [13]). Moreover, the animals exhibiting cures in [7] (setting [12]) and in data set [7] (setting [13]) was 100% in each case. For the same compound, the cure stood at 5 in data set [7] (setting [13]) and 2 in [8] (setting [12]). The “animals exhibiting PR's” value is given as 3 animals in data set [8] (setting [12]) and 5 animals in data set [8] (setting [13]). Besides, the “Grade 4 or treatment-related Grade 3 TEAEs” value in data set [9] (DL1 (0.5 mg/m^2, BIW)) is on record as “No Grade 4 or treatment-related Grade 3 TEAEs were observed”. Further, the “severity of TEAEs (tinnitus, constipation, asthenia, ataxia, dizziness, orthostatic hypotension)” value in [9] (DL1 (0.5 mg/m^2, BIW)) was “mild and self-limited”. The SAE result in data set [9] (DL1 (0.5 mg/m^2, BIW), Grade 3 vomiting in cycle 6, attributed to a viral syndrome) is “one”. For the same compound, in data set [9] (setting [16]), the “deaths on treatment or within 30 days of study discontinuation, treatment related SAEs, DLTs” value was “No deaths occurred on treatment or within 30 days of study discontinuation, treatment related serious adverse events (SAEs) or DLTs”. Further, in data set [9] (setting [16]), the “dose delays, omissions, or reductions due to toxicity” value is “no dose delays, omissions, or reductions due to toxicity”. For the same compound, the SAEs result in data set [9] (DL2 (1.0 mg/m^2, BIW)) is given as “no SAEs”. Also, in data set [9] (DL2 (1.0 mg/m^2, BIW)), the “severity of TEAEs (abdominal pain, diarrhea, vomiting, hypoglycemia, pain)” value was “mild and self-limited”. In data set [9] (DL2 (1.0 mg/m^2, BIW)), the “≧Grade 3 TEAEs regardless of relatedness” value is given as “no ≧Grade 3 TEAEs observed”. Besides, the “cumulative or late-emerging treatment-related AEs” value in data set [9] (either dose level (DL1, DL2)) is “no evidence of cumulative or late-emerging treatment-related AEs”.

`C=C1C[C@@H]2CC[C@@]34C[C@H]5O[C@H]6[C@@H](O3)[C@H]3O[C@H](CC[C@@H]3O[C@H]6[C@H]5O4)CC(=O)C[C@@H]3[C@@H](OC)[C@@H](C[C@H](O)CN)O[C@H]3C[C@H]3O[C@@H](CC[C@@H]1O2)C[C@@H](C)C3=C` [Eribulin mesylate, reference compound]: in data set [4] (setting [17]), the “animal exhibiting PR” value came to 1 animal and the anti-tumor activity result is recorded as “minimal anti-tumor activity”. Further, in data set [8] (setting [17]), the “PR's” value was found to be 2 and the anti-tumor activity entry is given as “some anti-tumor activity”.

Regarding `CC(=O)O[C@H]1C(=O)[C@@]2(C)[C@H]([C@H](OC(=O)c3ccccc3)[C@]3(O)C[C@H](OC(=O)[C@H](O)[C@@H](NC(=O)c4ccccc4)c4ccccc4)C(C)=C1C3(C)C)[C@]1(OC(C)=O)CO[C@@H]1C[C@@H]2O` [Paclitaxel, reference compound], the values for the anti-tumor activity entry in [3] (paclitaxel 20 mg/kg), in [6] (setting [18]) and in [7] (setting [18]) were “little to no anti-tumor activity”, “minimal anti-tumor activity” and “no anti-tumor activity”, respectively.
